# pEC50: −log10 of the molar value.
# Target: T1, PPARδ (Homo sapiens, UniProt Q03181)
# T1 construct: fused to amino acids 147-441 of PPARδ downstream of CMV promoter; expressed in transfected cells; host or cells: HEK293 cells, transiently transfected with pFACMV-PPARδ using Fugene
# T1 sequence (Q03181 147-441): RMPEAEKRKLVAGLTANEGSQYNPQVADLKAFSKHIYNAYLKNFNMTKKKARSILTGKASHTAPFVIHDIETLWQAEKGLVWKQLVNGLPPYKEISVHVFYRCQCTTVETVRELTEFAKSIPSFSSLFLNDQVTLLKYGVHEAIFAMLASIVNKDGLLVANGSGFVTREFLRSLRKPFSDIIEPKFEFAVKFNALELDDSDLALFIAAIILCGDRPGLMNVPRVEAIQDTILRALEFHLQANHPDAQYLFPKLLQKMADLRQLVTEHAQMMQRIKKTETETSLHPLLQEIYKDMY
# Assay: Transactivation assay (PPARδ GAL4 assay) in transiently transfected HEK293 cells
# Assay type: cell-based
# Settings: luciferase reporter, Table 2
# In short: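 HEK293 cells transiently co-transfected with GAL4 DBD (aa 1-147)–PPARδ (aa 147-441) fusion and 5×GAL4-luciferase reporter, then exposed 24 h to compound (final 0-30 μM) in OptiMEM at 37° C. Luminescence read; activity as percent of GW501516 control, EC50 from sigmoidal dose-response fit.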
row,pEC50,Compound
1,4.52 to 6.00,"CCc1cc(C(=O)c2ccc(OC(F)(F)F)cc2)c(NC(=O)CN([C@@H](C)C(=O)O)S(C)(=O)=O)s1 [Example 126, (S)-2-({[5-Ethyl-3-(4-trifluoromethoxy-benzoyl)-thiophen-2-ylcarbamoyl]-methyl}-methanesulfonyl-amino)-propionic acid]"
2,> 7.00,"CCc1cc(C(=O)c2ccc(OC(F)(F)F)cc2)c(NC(=O)CSC(CC)C(=O)O)s1 (stereo not drawn) [Example 127, 2-{[5-Ethyl-3-(4-trifluoromethoxy-benzoyl)-thiophen-2-ylcarbamoyl]-methylsulfanyl}-butyric acid]"
3,6.00 to 7.00,"CCc1cc(C(=O)c2ccc(OC(F)(F)F)cc2)c(NC(=O)CSC(C(=O)O)c2ccccc2)s1 (stereo not drawn) [Example 128, {[5-Ethyl-3-(4-trifluoromethoxy-benzoyl)-thiophen-2-ylcarbamoyl]-methylsulfanyl}-phenyl-acetic acid]"
4,> 7.00,"CCc1cc(C(=O)c2ccc(OC(F)(F)F)cc2)c(NC(=O)CS[C@@H](C)C(=O)O)s1 [Example 129, (S)-2-{[5-Ethyl-3-(4-trifluoromethoxy-benzoyl)-thiophen-2-ylcarbamoyl]-methylsulfanyl}-propionic acid]"
5,6.00 to 7.00,"CCc1cc(C(=O)c2ccc(OC(C)C)c(Cl)c2)c(NC(=O)CSCC(=O)O)s1 [Example 130, {[3-(3-Chloro-4-isopropoxy-benzoyl)-5-ethyl-thiophen-2-ylcarbamoyl]-methylsulfanyl}-acetic acid]"
6,> 7.00,"CCc1cc(C(=O)c2ccc(OC(F)(F)F)c(F)c2)c(NC(=O)CSCC(=O)O)s1 [Example 131, {[5-Ethyl-3-(3-fluoro-4-trifluoromethoxy-benzoyl)-thiophen-2-ylcarbamoyl]-methylsulfanyl}-acetic acid]"
7,> 7.00,"CCCc1cc(C(=O)c2ccc(OC(F)(F)F)cc2)c(NC(=O)CSCC(=O)O)s1 [Example 132, {[5-Propyl-3-(4-trifluoromethoxy-benzoyl)-thiophen-2-ylcarbamoyl]-methylsulfanyl}-acetic acid]"
8,> 7.00,"CC(C)c1cc(C(=O)c2ccc(OC(F)(F)F)cc2)c(NC(=O)CSCC(=O)O)s1 [Example 133, {[5-Isopropyl-3-(4-trifluoromethoxy-benzoyl)-thiophen-2-ylcarbamoyl]-methylsulfanyl}-acetic acid]"
9,6.00 to 7.00,"CCC(C)c1cc(C(=O)c2ccc(OC(F)(F)F)cc2)c(NC(=O)CSCC(=O)O)s1 (stereo not drawn) [Example 134, {[5-sec-Butyl-3-(4-trifluoromethoxy-benzoyl)-thiophen-2-ylcarbamoyl]-methylsulfanyl}-acetic acid]"
10,4.52 to 6.00,"CCc1cc(C(=O)c2ccc(F)cc2)c(NC(=O)CSc2ccc(OCC(=O)O)cc2)s1 [Example 135, (4-{[5-Ethyl-3-(4-fluoro-benzoyl)-thiophen-2-ylcarbamoyl]-methylsulfanyl}-phenoxy)-acetic acid]"
11,4.52 to 6.00,"CCc1cc(C(=O)c2ccc(Cl)cc2)c(NC(=O)CSc2ccc(OCC(=O)O)cc2)s1 [Example 136, (4-{[3-(4-Chloro-benzoyl)-5-ethyl-thiophen-2-ylcarbamoyl]-methylsulfanyl}-phenoxy)-acetic acid]"
12,6.00 to 7.00,"CCc1cc(C(=O)c2ccc(F)cc2)c(NC(=O)CSc2ccc(OC(C)(C)C(=O)O)cc2)s1 [Example 137, 2-(4-{[5-Ethyl-3-(4-fluoro-benzoyl)-thiophen-2-ylcarbamoyl]-methylsulfanyl}-phenoxy)-2-methyl-propionic acid]"
13,6.00 to 7.00,"CCc1cc(C(=O)c2ccc(Cl)cc2)c(NC(=O)CSc2ccc(OC(C)(C)C(=O)O)cc2)s1 [Example 138, 2-(4-{[3-(4-Chloro-benzoyl)-5-ethyl-thiophen-2-ylcarbamoyl]-methylsulfanyl}-phenoxy)-2-methyl-propionic acid]"
14,4.52 to 6.00,"CCc1cc(C(=O)c2nc3ccccc3s2)c(NC(=O)CSCC(=O)O)s1 [Example 139, {[3-(Benzothiazole-2-carbonyl)-5-ethyl-thiophen-2-ylcarbamoyl]-methylsulfanyl}-acetic acid]"
15,4.52 to 6.00,"CCc1cc(C(=O)c2cc3ccccc3o2)c(NC(=O)CSCC(=O)O)s1 [Example 140, {[3-(Benzofuran-2-carbonyl)-5-ethyl-thiophen-2-ylcarbamoyl]-methylsulfanyl}-acetic acid]"
16,> 7.00,"Cc1cc(C(=O)c2ccc(OC(F)(F)F)cc2)c(NC(=O)CSc2ccc(OCC(=O)O)cc2)s1 [Example 141, (4-{[5-Methyl-3-(4-trifluoromethoxy-benzoyl)-thiophen-2-ylcarbamoyl]-methylsulfanyl}-phenoxy)-acetic acid]"
17,> 7.00,"CCc1cc(C(=O)c2ccc(OC(F)(F)F)c(Cl)c2)c(NC(=O)CSCC(=O)O)s1 [Example 142, {[3-(3-Chloro-4-trifluoromethoxy-benzoyl)-5-ethyl-thiophen-2-ylcarbamoyl]-methylsulfanyl}-acetic acid]"

row,pEC50,Compound
1,4.52 to 6.00,"CCc1cc(C(=O)c2cccc(OC(F)(F)F)c2)c(NC(=O)CSCC(=O)O)s1 [Example 143, {[5-Ethyl-3-(3-trifluoromethoxy-benzoyl)-thiophen-2-ylcarbamoyl]-methylsulfanyl}-acetic acid]"
2,4.52 to 6.00,"CCc1cc(C(=O)c2cc(C)n(C)n2)c(NC(=O)CSCC(=O)O)s1 [Example 144, {[3-(1,5-Dimethyl-1H-pyrazole-3-carbonyl)-5-ethyl-thiophen-2-ylcarbamoyl]-methylsulfanyl}-acetic acid]"
3,6.00 to 7.00,"CCc1cc(C(=O)c2ccc(-c3ccccn3)cc2)c(NC(=O)CSCC(=O)O)s1 [Example 145, {[5-Ethyl-3-(4-pyridin-2-yl-benzoyl)-thiophen-2-ylcarbamoyl]-methylsulfanyl}-acetic acid]"
4,> 7.00,"CCc1cc(C(=O)c2ccc(OC(F)(F)F)cc2)c(NC(=O)CCC(C)(C)C(=O)O)s1 [Example 146, 4-[5-Ethyl-3-(4-trifluoromethoxy-benzoyl)-thiophen-2-ylcarbamoyl]-2,2-dimethyl-butyric acid]"
5,6.00 to 7.00,"CCc1cc(C(=O)c2ccc(Cl)cc2)c(NC(=O)CCC(C)(C)C(=O)O)s1 [Example 147, 4-[3-(4-Chloro-benzoyl)-5-ethyl-thiophen-2-ylcarbamoyl]-2,2-dimethyl-butyric acid]"
6,6.00 to 7.00,"CCc1cc(C(=O)c2ccc(OC(F)(F)F)c(F)c2)c(NC(=O)CCC(C)(C)C(=O)O)s1 [Example 148, 4-[5-Ethyl-3-(3-fluoro-4-trifluoromethoxy-benzoyl)-thiophen-2-ylcarbamoyl]-2,2-dimethyl-butyric acid]"
7,4.52 to 6.00,"CCc1cc(C(=O)c2cc3ccccc3n2C)c(NC(=O)CSCC(=O)O)s1 [Example 149, {[5-Ethyl-3-(1-methyl-1H-indole-2-carbonyl)-thiophen-2-ylcarbamoyl]-methylsulfanyl}-acetic acid]"
8,> 7.00,"CCc1cc(C(=O)c2cc3cc(OC(F)(F)F)ccc3n2C)c(NC(=O)CSCC(=O)O)s1 [Example 150, {[5-Ethyl-3-(1-methyl-5-trifluoromethoxy-1H-indole-2-carbonyl)-thiophen-2-ylcarbamoyl]-methylsulfanyl}-acetic acid]"
9,> 7.00,"CCc1cc(C(=O)c2cc3cc(Cl)ccc3n2C)c(NC(=O)CSCC(=O)O)s1 [Example 151, {[3-(5-Chloro-1-methyl-1H-indole-2-carbonyl)-5-ethyl-thiophen-2-ylcarbamoyl]-methylsulfanyl}-acetic acid]"
10,> 7.00,"CCc1cc(C(=O)c2cc3cc(OC(F)(F)F)ccc3n2C)c(NC(=O)CCC(C)(C)C(=O)O)s1 [Example 152, 4-[5-Ethyl-3-(1-methyl-5-trifluoromethoxy-H-indole-2-carbonyl)-thiophen-2-ylcarbamoyl]-2,2-dimethyl-butyric acid]"
11,6.00 to 7.00,"CCc1cc(C(=O)c2nc3ccc(OC(F)(F)F)cc3s2)c(NC(=O)CSCC(=O)O)s1 [Example 153, {[5-Ethyl-3-(6-trifluoromethoxy-benzothiazole-2-carbonyl)-thiophen-2-ylcarbamoyl]-methylsulfanyl}-acetic acid]"
12,6.00 to 7.00,"CCc1cc(C(=O)c2nc3ccc(Cl)cc3s2)c(NC(=O)CSCC(=O)O)s1 [Example 154, {[3-(6-Chloro-benzothiazole-2-carbonyl)-5-ethyl-thiophen-2-ylcarbamoyl]-methylsulfanyl}-acetic acid]"
13,6.00 to 7.00,"CCc1cc(C(=O)c2nc3cc(Cl)ccc3s2)c(NC(=O)CSCC(=O)O)s1 [Example 155, {[3-(5-Chloro-benzothiazole-2-carbonyl)-5-ethyl-thiophen-2-ylcarbamoyl]-methylsulfanyl}-acetic acid]"
14,6.00 to 7.00,"CCc1cc(C(=O)c2ccc3cc(Cl)ccc3n2)c(NC(=O)CSCC(=O)O)s1 [Example 156, {[3-(6-Chloro-quinoline-2-carbonyl)-5-ethyl-thiophen-2-ylcarbamoyl]-methylsulfanyl}-acetic acid]"
15,6.00 to 7.00,"CCc1cc(C(=O)c2cn(C)c3ccc(Cl)cc23)c(NC(=O)CSCC(=O)O)s1 [Example 157, {[3-(5-Chloro-1-methyl-1H-indole-3-carbonyl)-5-ethyl-thiophen-2-ylcarbamoyl]-methylsulfanyl}-acetic acid]"
16,6.00 to 7.00,"CCc1cc(C(=O)c2ccc(OC(F)(F)F)cc2)c(NC(=O)C(C)NCC(=O)O)s1 (stereo not drawn) [Example 158, {1-[5-Ethyl-3-(4-trifluoromethoxy-benzoyl)-thiophen-2-ylcarbamoyl]-ethylamino}-acetic acid]"
